The values below come from article PMC11121381, “ABCG2 Mediates Resistance to the Dual EGFR and PI3K Inhibitor MTX-211 in Cancer Cells” (International Journal of Molecular Sciences, 2024).

For data set [1], the target named is T1, epidermal growth factor receptor (EGFR) (Homo sapiens, UniProt P00533).
T1 construct: endogenous EGFR in S1 human colon cancer cells
In words: inhibition of EGF-induced EGFR phosphorylation (Tyr1068) in cells, immunoblot. The class given is cell-based.

In a further data set the target is T2, ABCG2 (Homo sapiens, UniProt Q9UNQ0).
T2 construct: human ABCG2 in membrane vesicles of High-Five insect cells
T2 sequence (Q9UNQ0 1-655): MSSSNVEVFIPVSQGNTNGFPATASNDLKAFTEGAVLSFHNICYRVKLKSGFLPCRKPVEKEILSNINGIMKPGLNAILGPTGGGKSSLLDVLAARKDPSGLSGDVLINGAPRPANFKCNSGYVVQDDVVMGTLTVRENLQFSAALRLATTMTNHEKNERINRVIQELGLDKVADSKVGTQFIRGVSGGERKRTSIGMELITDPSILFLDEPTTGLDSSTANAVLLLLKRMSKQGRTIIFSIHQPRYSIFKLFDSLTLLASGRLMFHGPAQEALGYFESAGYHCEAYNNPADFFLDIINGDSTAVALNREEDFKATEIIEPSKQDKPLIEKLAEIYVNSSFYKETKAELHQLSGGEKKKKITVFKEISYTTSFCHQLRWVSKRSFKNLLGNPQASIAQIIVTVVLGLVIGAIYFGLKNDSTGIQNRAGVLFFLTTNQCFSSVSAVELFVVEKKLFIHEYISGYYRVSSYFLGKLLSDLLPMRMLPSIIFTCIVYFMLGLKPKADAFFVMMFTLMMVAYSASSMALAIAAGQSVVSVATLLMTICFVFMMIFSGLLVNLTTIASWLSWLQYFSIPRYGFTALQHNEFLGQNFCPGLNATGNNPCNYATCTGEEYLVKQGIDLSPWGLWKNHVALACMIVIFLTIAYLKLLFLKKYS
In words: vanadate-sensitive ATPase stimulation (endpoint Pi release) in ABCG2 membrane vesicles; supported by LC-MS/MS cell accumulation with and without Ko143. In kind it is biochemical. The following applies: read-out: % of basal ATPase activity (peak stimulation).

T1 sequence (P00533 25-1210): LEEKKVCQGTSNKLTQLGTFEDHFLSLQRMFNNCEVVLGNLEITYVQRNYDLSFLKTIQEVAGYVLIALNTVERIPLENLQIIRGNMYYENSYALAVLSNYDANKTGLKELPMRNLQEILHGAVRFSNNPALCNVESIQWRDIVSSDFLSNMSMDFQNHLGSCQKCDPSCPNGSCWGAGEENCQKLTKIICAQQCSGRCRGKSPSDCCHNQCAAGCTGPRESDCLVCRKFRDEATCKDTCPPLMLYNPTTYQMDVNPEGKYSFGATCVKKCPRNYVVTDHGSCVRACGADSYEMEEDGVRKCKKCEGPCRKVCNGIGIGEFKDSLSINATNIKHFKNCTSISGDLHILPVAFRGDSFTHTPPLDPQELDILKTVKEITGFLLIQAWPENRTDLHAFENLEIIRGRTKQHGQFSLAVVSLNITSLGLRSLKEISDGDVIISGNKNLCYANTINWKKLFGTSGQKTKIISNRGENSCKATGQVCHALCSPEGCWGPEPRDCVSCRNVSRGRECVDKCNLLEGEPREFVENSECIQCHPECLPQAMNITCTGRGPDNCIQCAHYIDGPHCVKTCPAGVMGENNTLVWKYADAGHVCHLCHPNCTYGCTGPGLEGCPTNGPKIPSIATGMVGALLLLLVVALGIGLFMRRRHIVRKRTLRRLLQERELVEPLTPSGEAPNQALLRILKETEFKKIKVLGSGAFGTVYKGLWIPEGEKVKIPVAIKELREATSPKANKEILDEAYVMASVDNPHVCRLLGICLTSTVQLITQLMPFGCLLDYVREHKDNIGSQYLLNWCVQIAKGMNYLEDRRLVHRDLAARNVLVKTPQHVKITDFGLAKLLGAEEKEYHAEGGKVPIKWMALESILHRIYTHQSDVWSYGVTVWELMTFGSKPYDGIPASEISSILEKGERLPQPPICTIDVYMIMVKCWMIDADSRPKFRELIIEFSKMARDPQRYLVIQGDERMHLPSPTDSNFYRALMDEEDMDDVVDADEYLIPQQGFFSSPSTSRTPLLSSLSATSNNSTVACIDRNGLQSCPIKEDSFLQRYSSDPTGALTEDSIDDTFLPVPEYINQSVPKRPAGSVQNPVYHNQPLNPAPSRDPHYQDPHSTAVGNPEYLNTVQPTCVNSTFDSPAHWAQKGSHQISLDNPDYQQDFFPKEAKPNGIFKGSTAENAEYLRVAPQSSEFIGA

In data set [1], `CS(=O)(=O)Nc1cc(-c2ccc3ncnc(Nc4ccc(F)c(Cl)c4)c3c2)cnc1Cl` [MTX-211] gave a concentration for half-maximal inhibition (IC50) of 6.64 ± 1.27 µM. Also, the Emax at ABCG2 stood at 157%.
